Values quoted from earlier work as cited in US8940662B2, “Methods for controlling pests” (BASF Corporation, priority 2009, dated 2015).

Columns and labels:
[1] = test system: ants; settings: general statement
[2] = test system: termites; settings: general statement

## N#Cc1nn(-c2c(Cl)cc(C(F)(F)F)cc2Cl)c(N)c1[S+]([O-])C(F)(F)F (racemic) [fipronil, (±)-5-amino-1-(2,6-dichloro-α,α,α-trifluoro-p-tolyl)-4-trifluoromethylsulfinylpyrazole-3-carbonitrile]
[1]
  Toxic dose to ants: about 1 nanogram per ant
[2]
  Toxic dose to termites: 2 nanograms per termite
